Measurements reported in ChEMBL document CHEMBL5625245, “Novel ProTide prodrugs of 5-fluoro-2'-deoxyuridine for the treatment of liver cancer” (Eur J Med Chem, 2023).
pIC50: −log10 of the molar value. In brackets after ≈: the same amount, converted by molar mass.

Assays:
[1] = Antiproliferative activity against human L02 cells assessed as reduction in cell viability measured after 48 to 72 hrs by MTT assay; format: toxicity, cell-based
HepG2 [2] = test: Antitumor activity against human HepG2 cells xenografted in orthotopic mouse model assessed as tumor growth inhibition at 15 mg/kg, iv administered twice daily for 18 days relative to control; format: functional; conditions: HepG2, 432 h, time 18 day, read-out: TGI
[3] = Antiproliferative activity against human NCM460 cells assessed as reduction in cell viability measured after 48 to 72 hrs by MTT assay; format: toxicity, cell-based
Bel-7402 [4] = test: Antiproliferative activity against human Bel-7402 cells assessed as reduction in cell viability measured after 48 to 72 hrs by MTT assay; format: functional, cell-based
HepG2 [5] = test: Antitumor activity against human HepG2 cells xenografted in orthotopic mouse model assessed as average number of tumor at 15 mg/kg, iv administered twice daily for 18 days (reference value: 49+/3.6 mM); format: functional; conditions: time 18 day
HepG2 [6] = test: Antiproliferative activity against human HepG2 cells assessed as reduction in cell viability measured after 48 to 72 hrs by MTT assay; format: functional, cell-based
HepG2 [7] = test: Antiproliferative activity against human HepG2 cells assessed as reduction in cell viability at 20 uM measured after 48 hrs by MTT assay relative to control; format: functional
[8] = Solubility of the compound in 5% DMSO/10% cremophor EL/85% saline at 25 degreeC by HPLC analysis; format: physicochemical
[9] = Solubility of the compound in 5% DMSO/10% PEG300/85% saline at 25 degreeC by HPLC analysis; format: physicochemical
[10] = Toxicity in orthotopic mouse assessed as effect on heart at 60 mg/kg, iv administered twice daily for 18 days by H and E staining based analysis; format: organism-based; conditions: in vivo, 432 h, time 18 day
[11] = Selectivity index, ratio of IC50 for human L02 cells to IC50 for human HepG2 cells; format: toxicity; conditions: L02 cells and HepG2 cells, read-out: Ratio IC50
[12] = Metabolic stability in rat plasma assessed as half life at 1 mg/ml measured upto 72 hrs by HPLC analysis; format: ADME, cell-free
[13] = (§1) Drug metabolism in rat liver homogenate assessed as formation of (2S)-2-[[[(2R,3S,5R)-3-[(2S)-1-[(2S)-2-(tert-butoxycarbonylamino)-3-methyl-butanoyl]pyrrolidine-2-carbonyl]oxy-5-(5-fluoro-2,4-dioxo-pyrimidin-1-yl)tetrahydrofuran-2-yl]methoxy-hydroxy-phosphoryl]amino]propanoic acid measured after 120 mins; format: ADME, tissue-based; conditions: tissue homogenate, 2 h
[14] = Selectivity index, ratio of IC50 for human L02 cells to IC50 for human Bel-7402 cells; format: toxicity; conditions: L02 cells and Bel-7402 cells, read-out: Ratio IC50
[15] = as §1, with “20” for “120”; format: ADME, tissue-based; conditions: tissue homogenate
[16] = Toxicity in orthotopic mouse assessed as effect on drug tolerance at 60 mg/kg, iv administered twice daily for 18 days; format: organism-based; conditions: in vivo, 432 h, time 18 day
[17] = Metabolic stability in human plasma assessed as half life at 1 mg/ml measured upto 72 hrs by HPLC analysis; format: ADME, cell-free
[18] = Solubility of the compound in 2% DMSO/8% tween80/90% saline at 25 degreeC by HPLC analysis; format: physicochemical
[19] = Toxicity in orthotopic mouse assessed as effect on body weight at 60 mg/kg, iv administered twice daily for 18 days; format: organism-based; conditions: in vivo, 432 h, time 18 day
HepG2 [20] = test: Antitumor activity against human HepG2 cells xenografted in orthotopic mouse model assessed as tumor growth inhibition at 60 mg/kg, iv administered twice daily for 18 days in presence of 5-Fluorouracil relative to control; format: functional; conditions: HepG2, 432 h, time 18 day, read-out: TGI
[21] = Metabolic stability in rat liver homogenates assessed as half life at 1 mg/ml measured after 4 hrs by HPLC analysis; format: ADME, tissue-based
[22] = Solubility of the compound in 100% saline at 25 degreeC by HPLC analysis; format: physicochemical
[23] = Solubility of the compound in 5% PEG300/95% saline at 25 degreeC by HPLC analysis; format: physicochemical
[24] = Toxicity in orthotopic mouse assessed as effect on liver at 60 mg/kg, iv administered twice daily for 18 days by H and E staining based analysis; format: organism-based; conditions: in vivo, 432 h, time 18 day
Bel-7402 [25] = test: Antiproliferative activity against human Bel-7402 cells assessed as reduction in cell viability at 20 uM measured after 48 hrs by MTT assay relative to control; format: functional
[26] = Toxicity in orthotopic mouse assessed as effect on lung at 60 mg/kg, iv administered twice daily for 18 days by H and E staining based analysis; format: organism-based; conditions: in vivo, 432 h, time 18 day
[27] = Toxicity in orthotopic mouse assessed as effect on kidney at 60 mg/kg, iv administered twice daily for 18 days by H and E staining based analysis; format: organism-based; conditions: in vivo, 432 h, time 18 day
[28] = Toxicity in orthotopic mouse assessed as change in liver weight at 60 mg/kg, iv administered twice daily for 18 days; format: organism-based; conditions: in vivo, 432 h, time 18 day
[29] = Toxicity in orthotopic mouse assessed as effect on spleen at 60 mg/kg, iv administered twice daily for 18 days by H and E staining based analysis; format: organism-based; conditions: in vivo, 432 h, time 18 day
[30] = Solubility of the compound in 5% PBS/95% saline at 25 degreeC by HPLC analysis; format: physicochemical
[31] = Solubility of the compound in 5% DMSO/8% Tween80/87% saline at 25 degreeC by HPLC analysis; format: physicochemical
HepG2 [32] = test: Antitumor activity against human HepG2 cells xenografted in orthotopic mouse model assessed as average number of tumor at 60 mg/kg, iv administered twice daily for 18 days in presence of 5-Fluorouracil (reference value: 49+/3.6 mM); format: functional; conditions: time 18 day
[33] = Solubility of the compound in 5% DMSO/10% Tween80/85% saline at 25 degreeC by HPLC analysis; format: physicochemical
[34] = Solubility of the compound in 5% DMSO/95% saline at 25 degreeC by HPLC analysis; format: physicochemical
[35] = Solubility of the compound in 2% DMSO/10% tween80/88% saline at 25 degreeC by HPLC analysis; format: physicochemical
[36] = Drug metabolism in rat liver homogenate assessed as (2S)-2-[[[(2R,3S,5R)-3-[(2S)-2-(tert-butoxycarbonylamino)propanoyl]oxy-5-(5-fluoro-2,4-dioxo-pyrimidin-1-yl)tetrahydrofuran-2-yl]methoxy-hydroxy-phosphoryl]amino]propanoic acid formation measured upto 90 mins; format: ADME, tissue-based; conditions: tissue homogenate, 1.5 h

Compound | pIC50 [1] | pIC50 [3] | pIC50 (Bel-7402 [4]) | pIC50 (HepG2 [6]) | Activity (HepG2 [7]) [%] | solubility [8] [µg/mL] | solubility [9] [µg/mL] | Activity [10] | selectivity ratio [11] | half-life at 1 mg/ml [12] [h] | selectivity ratio [14] | Activity [16] | half-life at 1 mg/ml [17] [h] | solubility [18] [µg/mL] | Activity [19] | inhibition in vivo at 60 mg/kg (HepG2 [20]) [%] | half-life at 1 mg/ml [21] [h] | solubility [22] [µg/mL] | solubility [23] [µg/mL] | Activity [24] | further results
O=c1[nH]cc(F)c(=O)[nH]1 [FLUOROURACIL] | < 4.00 | < 4.00 | 4.44 | < 4.00 | 8.31 | – | – | – | – | – | – | – | – | – | – | – | – | – | – | – | inhibition in vivo at 15 mg/kg (HepG2 [2]): 0%; Activity (HepG2 [5]): 49 mM
CC(C)OC(=O)[C@H](C)N[P@](=O)(OC[C@H]1O[C@@H](n2cc(F)c(=O)[nH]c2=O)C[C@@H]1OC(=O)[C@@H]1CCCN1C(=O)[C@@H](NC(=O)OC(C)(C)C)C(C)C)Oc1ccccc1 | < 4.00 | < 4.00 | 6.09 | 6.27 | 75.24 | 5000 (≈ 6.16 mM) | < 1000 | Non-Toxic | 307 | > 48 | 205 | Non-Toxic | > 48 | < 5000 | Non-Toxic | 28.6 | 1.63 | < 1000 | < 1000 | Non-Toxic | Drug metabolism [13]: Metabolite_Detected; Drug metabolism [15]: Metabolite_Detected; Activity (Bel-7402 [25]): >70%; Activity [26]: Non-Toxic; Activity [27]: Non-Toxic; Activity [28]: Toxic; Activity [29]: Non-Toxic; solubility [30]: < 1000 µg/mL; solubility [31]: 5000 µg/mL (≈ 6.16 mM); tumour count (HepG2 [32]): 35; solubility [33]: > 10000 µg/mL; solubility [34]: < 1000 µg/mL; solubility [35]: > 10000 µg/mL
CC(C)OC(=O)[C@H](C)N[P@](=O)(OC[C@H]1O[C@@H](n2cc(F)c(=O)[nH]c2=O)C[C@@H]1OC(=O)[C@H](C)NC(=O)OC(C)(C)C)Oc1ccccc1 | < 4.00 | < 4.00 | 6.10 | 6.38 | 83.61 | 5000 (≈ 7.28 mM) | < 1000 | Non-Toxic | 310 | > 48 | 165 | Non-Toxic | > 48 | < 5000 | Non-Toxic | 75.5 | 0.16 | < 1000 | < 1000 | Non-Toxic | Activity (Bel-7402 [25]): 82.19%; Drug metabolism [36]: Metabolite_Detected; Activity [26]: Non-Toxic; Activity [27]: Non-Toxic; Activity [28]: Toxic; Activity [29]: Non-Toxic; solubility [30]: < 1000 µg/mL; solubility [31]: 5000 µg/mL (≈ 7.28 mM); tumour count (HepG2 [32]): 12; solubility [33]: > 10000 µg/mL; solubility [34]: < 1000 µg/mL; solubility [35]: > 10000 µg/mL
